The values that follow come from paper PMC6017357, “In Vitro Inhibitory Effects of Synthetic Cannabinoid EAM-2201 on Cytochrome P450 and UDP-Glucuronosyltransferase Enzyme Activities in Human Liver Microsomes” (Molecules : A Journal of Synthetic Chemistry and Natural …, 2018).

The target of the assay is T1, UGT2B7 (Homo sapiens, UniProt P16662).
T1 construct: ultrapooled human liver microsomes (0.2 mg/mL), 5 mM UDPGA; from tissue; host or cells: ultrapooled human liver microsomes
T1 sequence (P16662 24-529): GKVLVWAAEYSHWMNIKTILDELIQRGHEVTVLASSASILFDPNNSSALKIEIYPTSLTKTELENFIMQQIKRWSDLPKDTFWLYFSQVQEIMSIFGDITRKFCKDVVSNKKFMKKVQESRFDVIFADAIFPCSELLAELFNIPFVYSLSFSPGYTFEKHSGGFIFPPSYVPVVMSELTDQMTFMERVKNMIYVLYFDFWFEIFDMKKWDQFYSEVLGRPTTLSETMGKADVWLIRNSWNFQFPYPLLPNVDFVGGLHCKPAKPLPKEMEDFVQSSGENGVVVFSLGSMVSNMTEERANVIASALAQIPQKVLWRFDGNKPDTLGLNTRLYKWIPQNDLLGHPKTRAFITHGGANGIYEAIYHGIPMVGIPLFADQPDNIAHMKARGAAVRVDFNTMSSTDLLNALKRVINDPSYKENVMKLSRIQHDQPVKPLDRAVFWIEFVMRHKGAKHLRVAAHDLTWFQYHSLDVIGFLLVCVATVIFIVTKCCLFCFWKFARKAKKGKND
The assay is described as follows: UGT2B7-catalyzed naloxone 3-β-D-glucuronidation in human liver microsomes. Format: in vitro ADME. To be noted: at 50 µM. As for the experimental part: The inhibitory effects of EAM-2201 on UGT1A1, UGT1A3, UGT1A4, UGT1A6, UGT1A9 and UGT2B7 were evaluated using LC-MS/MS and the cocktail of UGT substrates as previously described. Each incubation mixture was prepared in a final volume of 100 µL as follows: ultrapooled human liver microsomes (0.2 mg/mL), 5 mM UDPGA, 10 mM magnesium chloride, alamethicin (25 µg/mL), 50 mM Tris buffer (pH 7.4), various concentrations of EAM-2201 in DMSO (final concentrations of 1–50 µM, 0.5% DMSO) and the UGT enzyme-specific substrates of two cocktail sets (set A: 0.5 µM SN-38, 2 µM chenodeoxycholic acid and 0.5 µM trifluoperazine; set B: 1 µM N-acetylserotonin, 0.2 µM mycophenolic acid and 1 µM naloxone, acetonitrile content, 0.5%). […] Supernatant from sets A and B (50 µL of each) was mixed and aliquots (5 µL) were analyzed by LC-MS/MS. […]
The metabolites formed from the six UGT cocktail substrates were simultaneously measured using LC-MS/MS [41]. […] Each metabolite was quantified via SRM in the negative ion mode: chenodeoxycholic acid 24-acyl-β-glucuronide, 567.2 > 391.0; mycophenolic acid glucuronide, 495.2 > 318.9; and propofol glucuronide (IS), 353.3 > 177.1; and in the positive ion mode: SN-38 glucuronide, 569.0 > 393.0; trifluoperazine glucuronide, 584.2 > 408.1; N-acetylserotonin-β-D-glucuronide, 395.2 > 219.0; naloxone 3-β-D-glucuronide, 504.0 > 310.0; and meloxicam (IS), 352.0 > 115.1. […]
On the technique in general: Liver microsomes are vesicles of endoplasmic reticulum, rich in cytochrome P450 enzymes.

On to `CCc1ccc(C(=O)c2cn(CCCCCF)c3ccccc23)c2ccccc12` [EAM-2201, (4-ethyl-1-naphthalenyl)[1-(5-fluoropentyl)-1H-indol-3-yl]-methanone], for which the “inhibition of UGT2B7-catalyzed naloxone 3-β-D-glucuronidation” value is listed as “negligibly inhibited”.
